In paper PMC7360964, “Auto‐inhibition of Mif2/CENP‐C ensures centromere‐dependent kinetochore assembly in budding yeast” (The EMBO Journal, 2020):
Where no end group is shown, it is not given here.

Target: T1, MN (Saccharomyces cerevisiae, UniProt P39731+P47149)
T1 construct: made in house; host or cells: E. coli BL21 (DE3)
T1 sequence (P39731 1-289): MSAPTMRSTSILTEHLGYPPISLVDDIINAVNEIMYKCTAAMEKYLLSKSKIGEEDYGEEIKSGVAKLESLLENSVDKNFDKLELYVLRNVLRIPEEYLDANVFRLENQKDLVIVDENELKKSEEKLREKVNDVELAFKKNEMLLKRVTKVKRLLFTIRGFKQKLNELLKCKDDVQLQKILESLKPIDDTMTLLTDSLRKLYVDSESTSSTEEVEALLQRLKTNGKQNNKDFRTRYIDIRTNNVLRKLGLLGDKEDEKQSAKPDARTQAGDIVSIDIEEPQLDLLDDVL
T1 sequence (P47149 1-201): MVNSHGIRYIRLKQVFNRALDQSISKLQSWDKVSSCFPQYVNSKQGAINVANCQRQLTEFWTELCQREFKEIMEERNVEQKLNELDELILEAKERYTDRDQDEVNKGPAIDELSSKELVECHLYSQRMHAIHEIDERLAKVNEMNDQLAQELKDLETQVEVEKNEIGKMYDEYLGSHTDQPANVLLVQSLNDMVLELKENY
Test: Isothermal titration calorimetry (ITC) with MN
Assay type: binding, budding yeast (S. cerevisiae)
Settings: summary of FP and ITC assays
Excerpt: Figure 5 The Mif2 N‐terminus is prevented from high‐affinity Mtw1c binding in the full‐length molecule • Co‐purification of Strep‐Mtw1c through Flag‐Mif2 after co‐expression in insect cells. Proteins were detected by Western blotting using their respective tags. • Western blotting of elution fractions from an SEC experiment of Mif2‐wt or Mif2^Ame1‐N swap in the absence (upper panel) or presence (lower panel) of Mtw1c. • ITC analysis of Mif2^1‐41 or Ame1^1‐20 binding to MN. Experiments were performed 3 or 4 times, respectively. One representative binding curve is shown, whereas the KD value represents the average of all experiments. • Cross‐link (XL) MS analysis of the Mif2wt protein in isolation or bound to Cse4n using the cross‐linker Bis[sulfosuccinimidyl] glutarate. Mif2wt alone or in combination with Cse4n was subjected to analytical size‐exclusion chromatography at 10 μM concentration. The corresponding Coomassie‐stained SDS–PAGE gels of Mif2‐wt alone or in combination with Cse4n are shown. Fractions used for cross‐linking are highlighted. […]
The binding constant of Ame1 could only be indirectly measured in the FP competition assay, as labeling of Ame1 N‐terminal peptides rendered them insoluble. We therefore directly determined binding affinities of Mif2 and Ame1 N‐terminal peptides to MN using isothermal titration calorimetry (ITC). […]

- dissociation constants for Mtw1 constructs: low micromolar range
Sequence: MDYMKLGLKSRKTGIDVKQDIPKDEYSMENIDDFFKDDETS [Mif2^1‐41]
